# ChEMBL document CHEMBL3751784, “Synthesis of novel 1-substituted triazole linked 1,2-benzothiazine 1,1-dioxido propenone derivatives as potent anti-inflammatory agents and inhibitors of monocyte-to-macrophage differentiation” (2015)
# Calls of active or inactive are those of the source. No cut-off for these calls is given here.
# Experiments:
# [1] = tested on: THP-1; assay: (§1) Antiinflammatory activity in human THP1 cells assessed as inhibition of PMA-induced TNFalpha secretion at 10 uM preincubated for 2 hrs followed by PMA addition measured after 48 hrs by ELISA; assay type: functional
# [2] = Cytotoxicity against human THP1 cells assessed as cell viability at 20 uM after 48 hrs by tryphan blue dye exclusion assay relative to control; assay type: functional; conditions: THP-1, 48 h, read-out: Activity
# [3] = (§2) Antiinflammatory activity in human THP1 cells assessed as inhibition of PMA-induced MCP-1 secretion at 10 uM preincubated for 2 hrs followed by PMA addition measured after 48 hrs by ELISA; assay type: functional; conditions: THP-1
# [4] = Antiinflammatory activity in human THP1 cells assessed as inhibition of PMA-induced IL-1beta secretion at 10 uM preincubated for 2 hrs followed by PMA addition measured after 48 hrs by ELISA; assay type: functional; conditions: THP-1
# [5] = as §1; assay type: functional; conditions: THP-1
# [6] = tested on: THP-1; assay: as §2; assay type: functional
# [7] = tested on: THP-1; assay: Antiinflammatory activity in human THP1 cells assessed as inhibition of PMA-induced TNFalpha secretion preincubated for 2 hrs followed by PMA addition measured after 48 hrs by ELISA; assay type: functional, cell-based
# [8] = tested on: THP-1; assay: Inhibition of PMA-induced monocyte to macrophage differentiation in human THP1 cells assessed as reduction in cell adherence at 20 uM preincubated for 2 hrs followed by PMA addition measured after 48 hrs by phase contrast microscopic analysis; assay type: functional, cell-based
# [9] = tested on: THP-1; assay: Antiinflammatory activity in human THP1 cells assessed as inhibition of PMA-induced IL-1beta secretion preincubated for 2 hrs followed by PMA addition measured after 48 hrs by ELISA; assay type: functional, cell-based
# [10] = tested on: THP-1; assay: Antiinflammatory activity in human THP1 cells assessed as inhibition of PMA-induced MCP-1 secretion preincubated for 2 hrs followed by PMA addition measured after 48 hrs by ELISA; assay type: functional, cell-based
# [11] = tested on: THP-1; assay: Antiinflammatory activity in human THP1 cells assessed as inhibition of PMA-induced COX2 mRNA level preincubated for 2 hrs followed by PMA addition measured after 48 hrs by RT-PCR analysis; assay type: functional, cell-based
# [12] = tested on: THP-1; assay: Inhibition of PMA-induced monocyte to macrophage differentiation in human THP1 cells assessed as reduction in lysosomal activity at 15 uM preincubated for 2 hrs followed by PMA addition measured after 48 hrs by lysotracker dye-based fluorescence microscopic analysis; assay type: functional, cell-based
# [13] = tested on: THP-1; assay: Inhibition of PMA-induced monocyte to macrophage differentiation in human THP1 cells assessed as reduction in CD-36 transcript level at 15 uM preincubated for 2 hrs followed by PMA addition measured after 24 hrs by RT-PCR analysis; assay type: functional, cell-based
# [14] = tested on: THP-1; assay: Inhibition of PMA-induced MMP1 transcript level in human THP1 cells at 15 uM preincubated for 2 hrs followed by PMA addition measured after 24 hrs by RT-PCR analysis; assay type: functional, cell-based
# [15] = tested on: THP-1; assay: Inhibition of PMA-induced monocyte to macrophage differentiation in human THP1 cells assessed as reduction in cell adherence at 15 uM preincubated for 2 hrs followed by PMA addition measured after 48 hrs by phase contrast microscopic analysis; assay type: functional, cell-based
# [16] = tested on: THP-1; assay: Inhibition of PMA-induced monocyte to macrophage differentiation in human THP1 cells assessed as reduction in cell size at 15 uM preincubated for 2 hrs followed by PMA addition measured after 48 hrs by mitotracker dye-based confocal microscopic analysis; assay type: functional
# [17] = tested on: THP-1; assay: Inhibition of PMA-induced monocyte to macrophage differentiation in human THP1 cells assessed as reduction in LOX-1 transcript level at 15 uM preincubated for 2 hrs followed by PMA addition measured after 24 hrs by RT-PCR analysis; assay type: functional, cell-based
# [18] = tested on: THP-1; assay: Inhibition of PMA-induced MMP9 transcript level in human THP1 cells at 15 uM preincubated for 2 hrs followed by PMA addition measured after 24 hrs by RT-PCR analysis; assay type: functional, cell-based
# [19] = tested on: THP-1; assay: Inhibition of PMA-induced monocyte/macrophage invasion in human THP1 cells at 15 uM preincubated for 2 hrs followed by PMA addition measured after 48 hrs by collagen-coated Boyden chamber invasion assay; assay type: functional, cell-based
# [20] = tested on: THP-1; assay: Inhibition of PMA-induced monocyte to macrophage differentiation in human THP1 cells assessed as reduction in MMP9 enzyme activity at 15 uM preincubated for 2 hrs followed by PMA addition measured after 48 hrs by gelatin zymographic analysis; assay type: functional, cell-based
# [21] = tested on: THP-1; assay: Inhibition of PMA-induced monocyte to macrophage differentiation in human THP1 cells assessed as reduction in MMP2 enzyme activity at 15 uM preincubated for 2 hrs followed by PMA addition measured after 48 hrs by gelatin zymographic analysis; assay type: functional, cell-based
SMILES,inhibition [1],viability at 20 µM [2] [%],inhibition at 10 µM [3] [%],inhibition at 10 µM [4] [%],inhibition at 10 µM [5] [%],other results
CN1C(C(=O)/C=C/c2cn(-c3ccc(F)cc3)nn2)=C(O)c2ccccc2S1(=O)=O,inactive,95.3,58.9,43.9,–,–
COc1ccc(NC(=O)Cn2cc(/C=C/C(=O)C3=C(O)c4ccccc4S(=O)(=O)N3C)nn2)cc1,–,94.5,64.8,49.8,62.9,–
Cc1ccc(-c2cc(C(F)(F)F)nn2-c2ccc(S(N)(=O)=O)cc2)cc1 [CELECOXIB],–,–,20.1,31.1,37.4,–
CN1C(C(=O)Nc2ccccn2)=C(O)c2ccccc2S1(=O)=O [PIROXICAM],–,–,11.4,21.8,25.8,–
CN1C(C(=O)/C=C/c2cn(-c3ccc([N+](=O)[O-])cc3)nn2)=C(O)c2ccccc2S1(=O)=O,inactive,93,31.5,36.5,–,–
CCCCCCCCn1cc(/C=C/C(=O)C2=C(O)c3ccccc3S(=O)(=O)N2C)nn1,–,92.3,40.9,64.7,2.9,–
CN1C(C(=O)/C=C/c2cn(-c3ccccc3F)nn2)=C(O)c2ccccc2S1(=O)=O,inactive,96.1,–,40.2,–,inhibition [6]: inactive
CN1C(C(=O)/C=C/c2cn(CC(=O)Nc3ccc(Cl)c(C(F)(F)F)c3)nn2)=C(O)c2ccccc2S1(=O)=O,–,94.3,88.4,93.6,93.2,inhibition [7]: Dose-dependent effect; inhibition [8]: inactive; inhibition [9]: Dose-dependent effect; inhibition [10]: Dose-dependent effect; inhibition [11]: Active
Cc1ccc(NC(=O)Cn2cc(/C=C/C(=O)C3=C(O)c4ccccc4S(=O)(=O)N3C)nn2)cc1,–,97,87.2,74.9,84.7,inhibition [7]: Dose-dependent effect; inhibition [12]: Active; inhibition [13]: Active; inhibition [14]: Active; inhibition [15]: Active; inhibition [16]: Active; inhibition [17]: Active; inhibition [18]: Active; inhibition [9]: Dose-dependent effect; inhibition [10]: Dose-dependent effect; inhibition [11]: Active; inhibition [19]: Active; inhibition [20]: Active; inhibition [21]: inactive
CN1C(C(=O)/C=C/c2cn(CC(=O)Nc3cccc(C(F)(F)F)c3)nn2)=C(O)c2ccccc2S1(=O)=O,–,96.2,85.1,83.6,87.6,inhibition [7]: Dose-dependent effect; inhibition [12]: Active; inhibition [13]: Active; inhibition [14]: Active; inhibition [15]: Active; inhibition [16]: Active; inhibition [17]: Active; inhibition [18]: Active; inhibition [9]: Dose-dependent effect; inhibition [10]: Dose-dependent effect; inhibition [11]: Active; inhibition [19]: Active; inhibition [20]: Active; inhibition [21]: inactive
CN1C(C(=O)/C=C/c2cn(CC(=O)NC3CCCCC3)nn2)=C(O)c2ccccc2S1(=O)=O,–,95.2,56.1,47.7,39.7,–
CN1C(C(=O)/C=C/c2cn(-c3ccc(F)c(Cl)c3)nn2)=C(O)c2ccccc2S1(=O)=O,inactive,94.3,–,16.3,–,inhibition [6]: inactive
CN1C(C(=O)/C=C/c2cn(CC(=O)Nc3ccc(F)cc3)nn2)=C(O)c2ccccc2S1(=O)=O,–,92.5,41.4,42.4,73.4,–
CN1C(C(=O)/C=C/c2cn(-c3ccc(C(F)(F)F)cc3)nn2)=C(O)c2ccccc2S1(=O)=O,inactive,96.6,12.7,17.7,–,–
CN1C(C(=O)/C=C/c2cn(CC(=O)Nc3ccc(C(F)(F)F)cc3)nn2)=C(O)c2ccccc2S1(=O)=O,–,95.1,81.1,91.1,94.2,inhibition [7]: Dose-dependent effect; inhibition [8]: inactive; inhibition [9]: Dose-dependent effect; inhibition [10]: Dose-dependent effect; inhibition [11]: Active
COc1ccc(-n2cc(/C=C/C(=O)C3=C(O)c4ccccc4S(=O)(=O)N3C)nn2)cc1,inactive,94.4,58.9,53.9,–,–
Cc1ccc(-n2cc(/C=C/C(=O)C3=C(O)c4ccccc4S(=O)(=O)N3C)nn2)cc1,inactive,94.3,45.2,50.2,–,–
COc1cccc(-n2cc(/C=C/C(=O)C3=C(O)c4ccccc4S(=O)(=O)N3C)nn2)c1,inactive,94.2,–,42.6,–,inhibition [6]: inactive
CN1C(C(=O)/C=C/c2cn(CC(=O)Nc3cccc(F)c3)nn2)=C(O)c2ccccc2S1(=O)=O,–,96.5,48.2,69.5,70.7,inhibition [7]: Dose-dependent effect; inhibition [8]: inactive; inhibition [9]: Dose-dependent effect; inhibition [10]: Dose-dependent effect; inhibition [11]: Active
CN1C(C(=O)/C=C/c2cn(-c3cc([N+](=O)[O-])ccc3Cl)nn2)=C(O)c2ccccc2S1(=O)=O,–,94.3,67.1,61.8,52.5,–
CN1C(C(=O)/C=C/c2cn(-c3cccc(Cl)c3)nn2)=C(O)c2ccccc2S1(=O)=O,inactive,96,5.4,37.3,–,–
CN1C(C(=O)/C=C/c2cn(-c3ccccc3)nn2)=C(O)c2ccccc2S1(=O)=O,–,94.2,31.9,56.9,24,–
CN1C(C(=O)/C=C/c2cn(-c3ccccc3Br)nn2)=C(O)c2ccccc2S1(=O)=O,–,94.4,16.2,45.9,13.7,–
CN1C(C(=O)/C=C/c2cn(CC(=O)Nc3c(F)cccc3F)nn2)=C(O)c2ccccc2S1(=O)=O,–,95.6,41.3,46.3,31.3,–
CN1C(C(=O)/C=C/c2cn(-c3ccc(F)cc3F)nn2)=C(O)c2ccccc2S1(=O)=O,–,96.2,29.6,47.7,11.2,–
CN1C(C(=O)/C=C/c2cn(CC(=O)Nc3ccc(F)cc3Br)nn2)=C(O)c2ccccc2S1(=O)=O,–,93.6,65.4,63.8,59.8,–
CN1C(C(=O)/C=C/c2cn(-c3cccc([N+](=O)[O-])c3)nn2)=C(O)c2ccccc2S1(=O)=O,inactive,92.6,30.7,25.6,–,–
CN1C(C(=O)/C=C/c2cn(-c3cccc(C(F)(F)F)c3)nn2)=C(O)c2ccccc2S1(=O)=O,inactive,93.8,–,23.9,–,inhibition [6]: inactive
CN1C(C(=O)/C=C/c2cn(CC(=O)Nc3ccccc3)nn2)=C(O)c2ccccc2S1(=O)=O,–,96.2,76.7,49.3,33.3,–
